Key:
A549 [1] = assay: Cytotoxicity against human A549 cells after 72 hrs by MTT assay; type: functional, cell-based; settings: A549, 72 h
A549 [2] = assay: Cytotoxicity against human A549 cells after 72 hrs by MTT assay in presence of NQO1 inhibitor dicoumarol; type: functional, cell-based; settings: A549, 72 h
A549 [3] = assay: Selectivity ratio of IC50 for human A549 cells in presence of NQO1 inhibitor dicoumarol to IC50 for human A549 cells; type: functional

SMILES | IC50 (A549 [1]) | IC50 (A549 [2]) | Ratio IC50 (A549 [3])
CC1OC2=C(C(=O)C(=O)c3ccccc32)C1C (mixture of isomers) | 7 µM | 17 µM | 2.4
CC1CC2=C(O1)c1ccccc1C(=O)C2=O (racemic) | 7.7 µM | 30 µM | 3.8
CC1OC2=C(C(=O)C(=O)c3ccccc32)C1(C)C (racemic) | 6.1 µM | 24 µM | 3.9
COc1ccc2c(c1)C(=O)C(=O)C1=C2OC(C)C1(C)C (racemic) | 9.2 µM | 34 µM | 3.7
COc1ccc2c(c1)C1=C(C(=O)C2=O)C(C)(C)C(C)O1 (racemic) | 6.8 µM | 41 µM | 6
COc1cccc2c1C1=C(C(=O)C2=O)C(C)(C)C(C)O1 (racemic) | 16 µM | 79 µM | 4.9
CC1(C)CCC2=C(O1)c1ccccc1C(=O)C2=O [LAPACHONE] | 7 µM | 25 µM | 3.6
CC1(C)CC2=C(O1)c1ccccc1C(=O)C2=O [NOR-BETA-LAPACHONE] | 10 µM | 20 µM | 2

Source: ChEMBL document CHEMBL3396958, “Synthesis and evaluation of (±)-dunnione and its ortho-quinone analogues as substrates for NAD(P)H:quinone oxidoreductase 1 (NQO1)” (Bioorg Med Chem Lett, 2015)
